Reference: patent publication US20210000806A1, “COMPOSITIONS AND METHODS FOR TREATING INFLAMMATORY BOWEL DISEASE AND FUSOBACTERIA-CAUSED OR RELATED DISEASES AND CONDITIONS” (priority 2018, published 2021)

Experiments:
ulcerative colitis = assay: Case report: patient with ulcerative colitis (pancolitis) treated with secnidazole, rifampicin and doxycycline; assay type: in vivo, human; settings: patient history before the antibiotic combination
Protocol: A patient with a 12 year history of ulcerative colitis presented with 4-15 diarrhoeal stools every day and 2-3 at night.
They were commenced on secnidazole (400 mg three times daily) combined with rifampicin (increasing from 150 mg twice daily to 300 mg twice daily after four weeks), together with doxycycline (50 mg twice daily).
They then continued on the same regimen a further six months when a colonoscopy was repeated.

[1] = system: inflammatory bowel disease (IBD); assay: Inventor's clinical experience with higher-dose rifaximin in colitis / IBD; assay type: in vivo, human
Text: Current doses are almost always an under-dosing with rifaximin; and there is no external dose reference or independent dose ranging study in colitis to be guided by.

SMILES	response to previous anti-inflammatory medications (ulcerative colitis)	inhibiting inflammation by inhibiting the infection(s) ([1]; higher dose spread over 3 doses/day (3.3 g per day) versus current recommended doses (550 mg twice daily))	remission with rifaximin alone ([1]; only using the higher and more frequent dosing)
Nc1ccc(O)c(C(=O)O)c1 [mesalazine]	not achieving more than a transient response	–	–
Cn1cnc([N+](=O)[O-])c1Sc1ncnc2nc[nH]c12 [azathioprine]	not achieving more than a transient response	–	–
C[C@]12C=CC(=O)C=C1CC[C@@H]1[C@@H]2C(=O)C[C@@]2(C)[C@H]1CC[C@]2(O)C(=O)CO [prednisone]	not achieving more than a transient response	–	–
CO[C@H]1/C=C/O[C@@]2(C)Oc3c(C)c(O)c4c(O)c(c5c(nc6cc(C)ccn65)c4c3C2=O)NC(=O)/C(C)=C\C=C\[C@H](C)[C@H](O)[C@@H](C)[C@@H](O)[C@@H](C)[C@H](OC(C)=O)[C@@H]1C [rifaximin]	–	works far better	can be used to achieve remission
